Assay results from US20060069132A1, “Azolecarboxamide herbicides” (priority 2004, published 2006).
Where two headings read alike, the source gives them in different places.

What was measured:
barnyardgrass [1] = experiment: Test B pre-/postemergence herbicide test; format: in vivo, Echinochloa crus-galli; conditions: Echinochloa crus-galli; for pest or weed control at 125 g/ha: 125 g ai/ha
In short: (§1)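 Formulation: non-phytotoxic solvent mix with surfactant. Timing: preemergence on seed and postemergence on 2–18 cm plants, applied concurrently. Readout after 13–15 d greenhouse: visual 0–100 control rating against controls.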

morningglory = experiment: Test B pre-/postemergence herbicide test; format: in vivo, Ipomoea coccinea; conditions: Ipomoea, 336 h; for pest or weed control at 125 g/ha: 125 g ai/ha
In short: as §1

pigweed = experiment: Test B pre-/postemergence herbicide test; format: in vivo, Amaranthus retroflexus; conditions: Amaranthus retroflexus, 336 h; for pest or weed control at 125 g/ha: 125 g ai/ha
In short: (§2)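 Herbicidal effect was judged by eye on a 0–100 scale after plants stood 13 to 15 days in the greenhouse following pre- or postemergence treatment with surfactant-containing formulations.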

blackgrass = experiment: Test B postemergence herbicide test; format: in vivo, Alopecurus myosuroides; conditions: Alopecurus myosuroides, post-emergence, 336 h, postemergence, read-out: Blackgrass plant response rating
In short: (§3)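 Scale 0–100: zero equals no visible effect, 100 complete control, judged by eye relative to controls. Timing: 13 to 15 days in greenhouse post-treatment. Growth stage at spraying: two leaves (paddy) or one to four leaves, 2–18 cm (postemergence).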

barnyardgrass [2] = experiment: Test B flooded paddy test; format: in vivo, Echinochloa crus-galli; conditions: Echinochloa crus-galli, 336 h, 1000 g ai/ha, visual rating, scale 0 to 100 (0 no effect, 100 complete control), 13 to 15 days, read-out: Barnyardgrass plant response rating
In short: as §3

wild oat = experiment: Test B postemergence herbicide test; format: in vivo, Avena fatua; conditions: Avena fatua, post-emergence, 336 h, postemergence, read-out: Oat, Wild plant response rating
In short: (§4)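 Each value is a visual 0–100 response rating taken against controls 13 to 15 days after treatment in the greenhouse. Plants received formulated chemical postemergence at the 1- to 4-leaf stage or, in flooded paddy, at the 2-leaf stage.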

Surinam grass = experiment: Test B pre-/postemergence herbicide test; format: in vivo, Urochloa decumbens; conditions: Urochloa decumbens; for pest or weed control at 125 g/ha: 125 g ai/ha
In short: as §2

large crabgrass = experiment: Test B pre-/postemergence herbicide test; format: in vivo, Digitaria sanguinalis; conditions: Digitaria sanguinalis; for pest or weed control at 125 g/ha: 125 g ai/ha
In short: as §2

wheat = experiment: Test B postemergence herbicide test; format: in vivo, Triticum aestivum; conditions: Triticum aestivum, post-emergence, 336 h, postemergence, read-out: Wheat plant response rating
In short: as §4

[3] = system: small flower umbrella sedge; experiment: Test B flooded paddy test; format: in vivo, Cyperus difformis; conditions: Cyperus difformis, 336 h, 1000 g ai/ha, visual rating, scale 0 to 100 (0 no effect, 100 complete control), 13 to 15 days, read-out: Sedge, Umbrella plant response rating
In short: as §3

corn = experiment: Test B pre-/postemergence herbicide test; format: in vivo, Zea mays; conditions: Zea mays; for plant injury at 125 g/ha: 125 g ai/ha
In short: as §2

giant foxtail = experiment: Test B pre-/postemergence herbicide test; format: in vivo, Setaria faberi; conditions: Setaria faberi, 336 h; for pest or weed control at 125 g/ha: 125 g ai/ha
In short: as §2

rice = experiment: Test B flooded paddy test; format: in vivo, Oryza sativa; conditions: Oryza sativa, 336 h, 1000 g ai/ha, visual rating, scale 0 to 100 (0 no effect, 100 complete control), 13 to 15 days, read-out: Rice plant response rating
In short: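 Treated at 2-leaf (paddy) or 1–4-leaf, 2–18 cm (postemergence); greenhouse 13–15 d; visual score vs control, 0 none to 100 complete control; dash = not tested.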

velvetleaf = experiment: Test B pre-/postemergence herbicide test; format: in vivo, Abutilon theophrasti; conditions: Abutilon theophrasti, 336 h; for pest or weed control at 125 g/ha: 125 g ai/ha
In short: as §2

cocklebur = experiment: Test B pre-/postemergence herbicide test; format: in vivo, Xanthium strumarium; conditions: Xanthium strumarium; for pest or weed control at 125 g/ha: 125 g ai/ha
In short: as §1

ducksalad = experiment: Test B flooded paddy test; format: in vivo, Heteranthera limosa; conditions: Heteranthera limosa, 336 h, 1000 g ai/ha, visual rating, scale 0 to 100 (0 no effect, 100 complete control), 13 to 15 days, read-out: Ducksalad plant response rating
In short: as §3

[4] = 125 g ai/ha, visual rating, scale 0 (no effect) to 100 (complete control)

CCc1cn(C(C)(C)C)nc1C(=O)Nc1cccc(C(=O)N(CC)CC)c1 [Compound 168, N-[3-[(diethylamino)carbonyl]phenyl]-1-(1,1-dimethylethyl)-4-ethyl-1H-pyrazole-3-carboxamide] was tested, and the pest or weed control at 31 g/ha (barnyardgrass [1]; post-emergence, postemergence, 31 g ai/ha, scale 0 to 100, read-out: Barnyardgrass plant response rating) was 0%, the pest or weed control at 125 g/ha (barnyardgrass [1]; post-emergence, postemergence, visual rating, scale 0 (no effect) to 100 (complete control), read-out: Barnyardgrass plant response rating) was 50% and the pest or weed control at 125 g/ha (barnyardgrass [1]; pre-emergence, 0 = no effect, 100 = complete control, read-out: Barnyardgrass plant response rating (0 to 100 scale)) was 70%. For the same compound, the pest or weed control at 31 g/ha (morningglory; post-emergence, postemergence, 31 g ai/ha, scale 0 to 100, read-out: Morningglory plant response rating) was 20%, the pest or weed control at 125 g/ha (morningglory; post-emergence, postemergence, visual rating, scale 0 (no effect) to 100 (complete control), read-out: Morningglory plant response rating) was 70% and the pest or weed control at 125 g/ha (morningglory; pre-emergence, 0 = no effect, 100 = complete control, read-out: Morningglory plant response rating (0 to 100 scale)) was 0%. The pest or weed control at 31 g/ha (pigweed; post-emergence, postemergence, 31 g ai/ha, scale 0 to 100, read-out: Pigweed plant response rating) was 50%, the pest or weed control at 125 g/ha (pigweed; post-emergence, postemergence, visual rating, scale 0 (no effect) to 100 (complete control), read-out: Pigweed plant response rating) was 70% and the pest or weed control at 125 g/ha (pigweed; pre-emergence, 0 = no effect, 100 = complete control, read-out: Pigweed plant response rating (0 to 100 scale)) was 100%. It also gave a pest or weed control at 31 g/ha (blackgrass; 31 g ai/ha, scale 0 to 100) of 0%, a pest or weed control at 125 g/ha (blackgrass; [4]) of 10% and a pest or weed control at 1000 g/ha (barnyardgrass [2]) of 50%. The pest or weed control at 31 g/ha (wild oat; 31 g ai/ha, scale 0 to 100) was 10%, the pest or weed control at 125 g/ha (wild oat; [4]) was 20% and the pest or weed control at 31 g/ha (Surinam grass; post-emergence, postemergence, 31 g ai/ha, scale 0 to 100, read-out: Surinam Grass plant response rating) was 10%. For the same compound, the pest or weed control at 125 g/ha (Surinam grass; post-emergence, postemergence, visual rating, scale 0 (no effect) to 100 (complete control), read-out: Surinam Grass plant response rating) was 20%, the pest or weed control at 125 g/ha (Surinam grass; pre-emergence, 0 = no effect, 100 = complete control, read-out: Surinam Grass plant response rating (0 to 100 scale)) was 50% and the pest or weed control at 31 g/ha (large crabgrass; post-emergence, postemergence, 31 g ai/ha, scale 0 to 100, read-out: Crabgrass, Large plant response rating) was 10%. For the same compound, the pest or weed control at 125 g/ha (large crabgrass; post-emergence, postemergence, visual rating, scale 0 (no effect) to 100 (complete control), read-out: Crabgrass, Large plant response rating) was 20%, the pest or weed control at 125 g/ha (large crabgrass; pre-emergence, 0 = no effect, 100 = complete control, read-out: Crabgrass, Large plant response rating (0 to 100 scale)) was 100% and the plant injury at 31 g/ha (wheat; 31 g ai/ha, scale 0 to 100) was 0%. The plant injury at 125 g/ha (wheat; [4]) was 20%, the pest or weed control at 1000 g/ha [3] was 90% and the plant injury at 31 g/ha (corn; post-emergence, postemergence, 31 g ai/ha, scale 0 to 100, read-out: Corn plant response rating) was 10%. It also gave a plant injury at 125 g/ha (corn; post-emergence, postemergence, visual rating, scale 0 (no effect) to 100 (complete control), read-out: Corn plant response rating) of 50%, a plant injury at 125 g/ha (corn; pre-emergence, 0 = no effect, 100 = complete control, read-out: Corn plant response rating (0 to 100 scale)) of 0% and a pest or weed control at 31 g/ha (giant foxtail; post-emergence, postemergence, 31 g ai/ha, scale 0 to 100, read-out: Foxtail, Giant plant response rating) of 0%. The pest or weed control at 125 g/ha (giant foxtail; post-emergence, postemergence, visual rating, scale 0 (no effect) to 100 (complete control), read-out: Foxtail, Giant plant response rating) was 20%, the pest or weed control at 125 g/ha (giant foxtail; pre-emergence, 0 = no effect, 100 = complete control, read-out: Foxtail, Giant plant response rating (0 to 100 scale)) was 90% and the plant injury at 1000 g/ha (rice) was 40%. It also gave a pest or weed control at 31 g/ha (velvetleaf; post-emergence, postemergence, 31 g ai/ha, scale 0 to 100, read-out: Velvetleaf plant response rating) of 10%, a pest or weed control at 125 g/ha (velvetleaf; post-emergence, postemergence, visual rating, scale 0 (no effect) to 100 (complete control), read-out: Velvetleaf plant response rating) of 20% and a pest or weed control at 125 g/ha (velvetleaf; pre-emergence, 0 = no effect, 100 = complete control, read-out: Velvetleaf plant response rating (0 to 100 scale)) of 60%. For the same compound, the pest or weed control at 31 g/ha (cocklebur; post-emergence, postemergence, 31 g ai/ha, scale 0 to 100, read-out: Cocklebur plant response rating) was 30%, the pest or weed control at 125 g/ha (cocklebur; post-emergence, postemergence, visual rating, scale 0 (no effect) to 100 (complete control), read-out: Cocklebur plant response rating) was 70% and the pest or weed control at 125 g/ha (cocklebur; pre-emergence, 0 = no effect, 100 = complete control, read-out: Cocklebur plant response rating (0 to 100 scale)) was 0%. For the same compound, the pest or weed control at 1000 g/ha (ducksalad) was 70%.
